# Laboratory results published in patent US20060229355A1, “3.3'-Diindolylmethane compositions inhibit angiogenesis” (priority 2005, published 2006).
# Assays:
# [1] = system: p27^Kip1; experiment: Western blot of G1 cell cycle components in HUVECs: p27Kip1; type: cell-based, human; conditions: 25 μM DIM
# Description: (§1) DIM down-regulates CDK2 and CDK6, and up-regulates CDK inhibitor p27^Kip1 in HUVECs. […] To examine this possibility, the expressions of G1 cell cycle components were investigated by Western blot analysis.
# [2] = system: CDK2; experiment: Western blot of G1 cell cycle components in HUVECs: CDK2; type: cell-based, human; conditions: 25 μM DIM
# Description: as §1
# [3] = system: CDK4; experiment: Western blot of G1 cell cycle components in HUVECs: CDK4; type: cell-based, human; conditions: DIM treatment
# Description: as §1
# [4] = system: HUVECs; experiment: Tube formation assay on Matrigel; type: cell-based, human; conditions: 24 h pre-treatment, 10 μM DIM, 3-h incubation
# Protocol: Tube formation assay. Endothelial cells plated onto a gel of basement membrane protein rapidly organize into multicellular tube-like structures [12; 13]. Twelve-well cell culture plates coated with Matrigel were ordered from BD-Discovery Labware and assay was performed according to the manufacturer's instruction. Briefly, Matrigel-coated 12-well plates were allowed to solidify at 37° C. for 1 h. Endothelial cells pre-treated with 0, 10, or 25 μM DIM for 24 h were trypsinized and 6×10^4 cells were added per well in 1 mL medium. Cell viability was determined by trypan blue exclusion stain before seeding. DIM treatments continued for the rest of the assay. Tube formation was observed periodically over time under a phase contrast microscope, and representative pictures were taken at 3 h and 24 h. In a further assay of angiogenesis, we examined the effect of DIM on HUVEC tube formation in culture. Capillary formation on Matrigel is a process that requires cell-matrix interaction. For the assay, HUVECs were pre-treated without or with 10 or 25 μM of DIM for 24 h and then seeded on a thin layer of Matrigel. Capillary tube structure formation was obvious at 3 h of incubation and was almost completed at 24 h in the control medium.
# [5] = Toxicity observations in MCF-7 xenograft study (feed intake, body weight, organ weights); type: in vivo, athymic (nu/nu) mice; conditions: 5 mg/kg s.c. five times weekly
# Protocol: (§2) II. Antiangiogenic DIM inhibits human breast carcinoma in xenograft model. Twenty female athymic (nu/nu) mice were acclimated to semi-purified phytoestrogen-free AIN-76 ad libitum for 7 days prior to the study. They were implanted with a 60-d release 0.72 mg estradiol pellet in the subscapular region. Mice were then inoculated s.c. in the bilateral flanks with 0.1 mL Matrigel containing 3×10^6 MCF-7 human breast cancer cells and randomly grouped (10/group) to receive s.c. injections of either 5 mg/kg DIM or DMSO in a PBS vehicle, five times weekly. Feed intake, body weight were measured weekly and palpable tumor diameter were measured twice per week. Tumor volumes were calculated as: (π/6)×[length(mm)×width^2(mm)] [15]. The experiment was terminated at 34 days. All animals were killed by CO2 asphyxiation.
# (§3) DIM inhibits the growth of transplanted MCF-7 human breast carcinoma cells. Since we observed an inhibition of in vivo angiogenesis by DIM in the Matrigel plug assay, we determined whether DIM could inhibit the growth of transplanted breast carcinoma cells in female athymic (nu/nu) mice. Mice were injected s.c. with MCF-7 human breast cancer cells in the bilateral flanks. Mice were randomly assigned (10 mice/group) to receive s.c. injection of either DIM at 5 mg/kg dose or vehicle control DMSO in PBS, five times weekly. Feed intake, body weight and palpable tumor diameter were measured twice per week. Feed intake (22.2±1.3 g/wk vs. 22.9±1.0 g/wk) and body weight gain (2.3±0.2 g vs. 2.4±0.2 g) were not altered by DIM administration. […] Tumor volumes were calculated as: (π/6)×[length(mm)×width^2(mm^2)].
# [6] = system: p21^Waf1/CiP1; experiment: Western blot of G1 cell cycle components in HUVECs: p21Waf1/Cip1; type: cell-based, human; conditions: DIM treatment
# Description: as §1
# [7] = system: neovascularization of Matrigel plugs; experiment: Matrigel plug angiogenesis assay (hemoglobin content); type: in vivo, C57BL/6 mice; conditions: 5 mg/kg s.c., from five days before Matrigel inoculation and 2 more weeks
# Protocol: Matrigel plug angiogenesis assay. In vivo angiogenesis assays were performed on female C57BL/6 mice as described before. Mice were acclimated to semi-purified phytoestrogen-free AIN-76 ad libitum for 7 days prior to the study and randomly grouped (5/group). DMSO vehicle or DIM at 5 mg/kg was injected s.c. five days before Matrigel inoculation. Heparin (64 Unit/mL) and aFGF (100 ng/mL) were gently mixed with cold liquid Matrigel at 4° C. The Matrigel solution (0.3 ml) was injected into mice s.c. in the bilateral flanks. Animals were treated with DMSO control or DIM for 2 more weeks and terminated by CO2 inhalation. The gels were surgically removed and vascularization of Matrigel plugs was quantified by measuring hemoglobin content using Drabkin Reagent kit 525. DIM reduces in vivo angiogenesis. Using a rodent Matrigel plug angiogenesis assay, we next investigated whether DIM affects neovascularization in vivo. Matrigel is a urea extract of Engelbreth-Holm-Swarm (EHS) tumor, which contains laminin, collagen IV, heparan sulfate proteoglycan, and several growth factors, all of which are present in the authentic basement membrane of solid tumors. When injected subcutaneously into rodents, Matrigel forms a solid “plug” beneath the skin. The hemoglobin content in the Matrigel parallels blood vessels development in the gel, thereby allowing quantitation. […]
# [8] = system: HUVECs; experiment: Wound migration assay; type: cell-based; conditions: Homo sapiens, HUVEC; 25 μM DIM, 18 h incubation; read-out: number of cells migrating across the wound, % of control
# Protocol: Wound migration assay. Migration was assessed using an in vitro wound assay. One hundred thousands cells were seeded into two 12-well cell culture plates and cultured in EGM-MV BulletKit to confluency. A scrape was made in the center of the cell monolayers with a sterile pipette tip to create a gap of constant width. Cellular debris was removed by gently washing with PBS. The initial images of the wounds were captured under phase contrast microscopy and the wounded monolayers were incubated further for 18 h in fresh EGM-MV BulletKit medium in the presence of DMSO or DIM of various concentrations (5, 10, or 25 μM). Pictures were taken with a Nikon Coolpix990 digital camera connected to the Nikon Eclipse TS 100 microscope at a 100× magnification. To quantify the migration, photographs of the initial wounded monolayers were compared with the corresponding images of cells at the end of the incubation. […] Cells that migrated across the lines were counted. All quantification were done on full-size images with the weight of artificial lines negligible compared to the size of the cell body. At least 5 fields from each triplicate treatment were counted. […] To quantify the migration, artificial lines fitting the cutting edges were drawn on pictures of the original wounded cells and overlaid on images of cells after incubation. Cells that migrated across the lines were counted. […]
# [9] = system: HUVECs; experiment: Cell proliferation assay (HUVEC cell counting); type: cell-based, human
# Protocol: Antiangiogenic effects of the DIM analogs are pre-screened with vascular endothelial cells proliferation assays. […] Cells were then treated by 0, 2, 5, 10, or 25 μM DIM candidate at 24, 48, and 72 h. DIM was dissolved in DMSO as 1000× stock solutions for each treatment. Cell numbers were assessed at various time points by trypsinization and counting with a Coulter Z1 cell counter, as described below in Example I below. Cell proliferation assay. To determine endothelial cell proliferation, approximately 8×10^4 HUVECs were seeded in 6-well plates and allowed to grow for 24 h. Cells were then treated by 0, 2, 5, 10, or 25 μM DIM at 24, 48, and 72 h. DIM was dissolved in DMSO as 1000× stock solutions for each treatment. Cell numbers were assessed at various time points by trypsinization and counting with a Coulter Z1 cell counter. DIM inhibits proliferation, invasion, migration and tube formation of HUVECs. […] First, DIM's effect on proliferation of human vascular endothelial cell (HUVECs) was examined. HUVECs were treated with 0, 2, 5, 10, or 25 μM DIM for 24 to 72 h. DIM inhibited HUVECs proliferation in a concentration- and time-dependent manner, with up to 70% inhibition of proliferation at 72 h treatment with 25 μM DIM.
# [10] = system: MCF-7 human breast cancer cells; experiment: MCF-7 human breast carcinoma xenograft in athymic mice; type: in vivo, athymic (nu/nu) mice; conditions: 5 mg/kg s.c. five times weekly
# Protocol: as §2, §3
# [11] = system: HUVECs; experiment: Cell invasion assay (Matrigel-coated transwell Boyden chamber); type: cell-based, human
# Protocol: Cell invasion assay. Invasion assays were carried out using modified transwell Boyden chamber system. Chambers were assembled using 8 μm-pore BD Falcon transwell inserts as upper chambers, and the 12-well plates as lower chambers. Cell culture inserts were coated with 10 μl/insert Matrigel. Coated inserts were left to dry overnight in a laminar flow fume hood and then rehydrated with DMEM supplemented with 0.1% BSA for 1 h at 37° C. Rehydrated Matrigel wells were washed with the same medium. HUVECs were harvested by trypsin/EDTA and resuspended in 0.1% BSA/DMEM. Medium containing 5% FBS was applied to the lower chamber as chemoattractant, then cells were seeded at 1.5×10^5 cells/insert in the presence of 0, 5, 10 or 25 μM DIM and incubated for 2 h at 37° C. and 5% CO2. At the end of the incubation, the cells in the upper chamber were removed with cotton swabs and cells that traversed the Matrigel to the lower surface of the insert were fixed with 10% formalin/PBS and stained with crystal violet in 10% formalin/PBS. Cells that migrated to the lower surface of the insert were counted under the light microscope at a magnification of 40×. Each treatment was in triplicate. The quantification of the invasive cells in the presence of DIM was expressed as the percentage of the quantity of invasive cells under control conditions (DMSO). We next conducted a cell invasion assay to examine the effect of DIM on HUVEC movement through a simulated extracellular matrix. In a modified Boyden chamber assay, the transwell inserts were coated with a thin layer of Matrigel and inserted into wells containing 5% FBS medium as a chemoattractant. As a negative control, serum-free medium containing 0.1% BSA was used in the lower chamber wells. Cells which transversed the Matrigel and migrated to the lower part of the insert were photographed and quantified. […] In response to 5% FBS, however, HUVECs traversed the Matrigel and migrated to the lower chamber. The invasion of HUVECs was decreased by DIM in a concentration-dependent manner, in which DIM at 25 μM decreased cell invasion to 52% of the control.
# [12] = system: HUVECs; experiment: Cell cycle analysis by flow cytometry; type: cell-based, human; conditions: 24 h
# Protocol: DIM induces a G1 cell cycle arrest in HUVECs. To further characterize the antiproliferative activity of DIM in HUVECs, we examined the effects of this indole on cell cycle regulation. For the cell cycle studies, HUVECs treated with vehicle control or 25 μM DIM for 24 h were analyzed by flow cytometry as described above.
# [13] = system: CDK6; experiment: Western blot of G1 cell cycle components in HUVECs: CDK6; type: cell-based, human; conditions: 25 μM DIM
# Description: as §1
# [14] = system: cyclin E; experiment: Western blot of G1 cell cycle components in HUVECs: cyclin E; type: cell-based, human; conditions: DIM treatment
# Description: as §1
structure (smiles),measurement,setting,value
"c1ccc2c(Cc3c[nH]c4ccccc34)c[nH]c2c1 [DIM, 3,3′-Diindolylmethane]","p27Kip1 expression, fold of the control",[1],~3.5 fold
same,"CDK2 expression, % of the control",[2],35%
same,level of CDK4,[3],not significantly affected
same,capillary tube structure formation (in words),[4],decreased ability to extend and differentiate into tube-like structures
same,body weight gain,[5],not altered
same,feed intake,[5],not altered
same,relative organ weights,[5],not significantly affected
same,level of p21Waf1/Cip1,[6],not significantly affected
same,reduction of neovascularization compared to controls (hemoglobin content),[7],up to 76%
same,activity at 25 µM,[8],40%
same,inhibition of proliferation (in words),"[9]; 5 μM DIM, 72 h",Significant inhibition of proliferation
same,inhibition at 25 µM,"[9]; Homo sapiens, HUVEC, 25 μM DIM, 72 h treatment",≤ 70%
same,cell survival and viability (trypan blue exclusion),"[9]; conditions of the proliferation assay, 0-25 μM, 24-72 h",not obviously affected
same,reduction of tumor growth,[10]; after 3 weeks (P=0.22),40%
same,final average tumor volume,"[10]; day 34, control 3121±554.5 mm^3",1125±434 mm^3
same,reduction of tumor growth,[10]; termination at day 34 (P<0.05),64%
same,cell invasion (in words),[11]; 5 μM DIM,trend of decreased cell invasion
same,cell invasion (in words),[11]; 10 μM DIM,more significant effect
same,"cell invasion, % of the control","[11]; 25 μM DIM, 5% FBS chemoattractant, 2 h",52%
same,cell population in G1 phase (in words),"[12]; 5 μM DIM, asynchronous growing cells",increased the cell population in G1 phase
same,proportion of S phase cells,"[12]; 25 μM DIM, vehicle control 15.2±1.3",2.4±0.9%
same,proportion of cells in the G1 phase,"[12]; 25 μM DIM, vehicle control 71.8±2.5%",85.7±2.9%
same,"CDK6 expression, % of the control",[13],40%
same,level of cyclin E,[14],not significantly affected
